How the values were obtained:
[1] = tested on: bone marrow polychromatic erythrocytes; test: Genotoxicity, bone marrow micronucleus assay; details: 24 h, per 2000 PCEs (vehicle 7 ± 2)
Method: The test compounds were intraperitoneally administered once, as a solution, at a concentration of 15 mg/kg of 5-fluorouracil (5-Fu) and 30 mg/kg of C19 or I-C19. Bone marrow cells were obtained 24 h after treatment and stained with Giemsa-Wright (Diff-Quick; Harleco; Gibbstown, NJ, USA). Two-thousand polychromatic erythrocytes were counted per animal using an optical microscope at 100× magnification to determine the number of micronucleated polychromatic erythrocytes.

CCD-18Co = tested on: CCD-18Co; design: method as in PMID 30382908; details: CCD-18Co healthy cell line; cited from earlier work
colon adenocarcinoma = test: AOM/DSS colorectal cancer mouse model; assay type: in vivo, C57BL/6 male mice; details: AOM/DSS mice
Method: Aberrant glands formed these lesions, and the cells that formed them presented atypical nuclei with evident nucleoli and loss of mucus production. The percentage of mice colorectal tissue affected with these lesions was considered as the percentage of colon adenocarcinoma in mice.
Six-week-old C57BL/6 male mice, with a weight of approximately 20 g, were intraperitoneally injected with a single dose of azoxymethane (AOM) (10 mg/kg). […] For the control group, the same procedure was performed with normal intraperitoneal saline and pure drinking water instead of the AOM/DSS treatment.
Paraffin sections of colon tumor samples were deparaffinized in xylene and rehydrated in a series of graded alcohols. Antigens were retrieved in 0.01 M sodium citrate buffer and 0.1M EDTA-Tris buffer (Novocastra™ Epitope Retrieval Solutions, cat. RE7113; Leica Biosystems). Samples were incubated in 0.9% H2O2 for 5 min, followed by 1 h of blocking in 1% BSA in PBS. […] Then, the samples were developed with the Betazoid DAB Chromogen Kit (Cat. BDB2004H; BIOCARE Medical), counter-stained with hematoxylin and mounted with synthetic resin solution (Entallan.107960; Merck).

micronuclei = details: mice, 30 mg/kg; cited from earlier work
[2] = tested on: CMT93 (mice colorectal cancer) allograft tumors; design: method as in PMID 19569179; details: 30 min post-injection; cited from earlier work
[3] = tested on: colorectal cancer cell lines; test: Cell uptake, initial; assay type: cell-based, human; details: before the 3 h increase
Method: (§1) The HCT116, LoVo and SW620 cells were seeded in 48-well tissue culture plates at a density of 10^5 cells/well. After 24 h, the cells were exposed to 1.44 Bq/cell of ^131I-C19 (200 μL) at 37 °C for 1, 3 and 5 h. After treatment, two washes (1 mL of ice-cold PBS) were performed. For the calculation of the cell uptake, the cells in each well were treated (at room temperature for 5 min) with 500 μL of glycine buffer (50 mM, pH 2.8). Then, this fraction was removed, and the radioactivity was measured in a NaI (Tl) detector (BCL, San Rafael CA, USA). To evaluate the ^131I-C19 internalization, the cells were incubated with 1 mL of NaOH 0.3 M (at room temperature for 10 min). Once more, the radioactivity was measured in a NaI (Tl) detector (BCL, San Rafael CA, USA). A 100% standard solution (200 μL) of ^131I-C19 was also measured (n = 5). The uptake (%) (plasmatic membrane) and internalization (%) (cytoplasm) were used to obtain the radiation absorbed dose.

SW620 [4] = test: XTT cell viability; assay type: cell-based, human; details: SW620, 6.8 µM, 1.44 Bq/cell, 72 h
Method: (§2) The human CRC cell lines, LoVo (ATCC® CCL-229™), SW620 (ATCC® CCL-227™) and HCT116 (ATCC® CCL-247™), were acquired from ATCC and cultured in F12K medium (Kaighn’s Modification of Ham’s F-12 Medium), DMEM-F12 medium and RPMI-1640 medium, (ATCC, Manassas, VA, USA), respectively. The human colorectal fibroblast CCD-18Co line was grown in an EMEM medium (ATCC, Manassas, VA, USA). The media were added with 10% fetal bovine serum and a 1% penicillin/streptomycin solution. Cells were incubated at 37 °C in a humidified atmosphere of 5% CO2.
(§3) The CCD-18Co, SW620, LoVo and HCT116 cell lines were plated in 96-well plates at a density of 10^4 cells/well for 24 h to allow for adherence. Then, the cells were treated with the I-C19 compound for 72 h. Cell viability was evaluated by the XTT (2,3-bis[2-methoxy-4-nitro-5-sulfophenyl]-2H-tetrazolium-5-carboxyanilide) assay kit (Roche, Germany), based on to the manufacturer’s instructions. The required I-C19 concentration, which produced fifty percent cell death at 72 h, was calculated by fitting a model with Prism software (GraphPad Software, San Diego, CA, USA).
(§4) For the assessment of dual therapy, beta radiation emission from ^131I-labeled C19 was also evaluated. The mitochondrial dehydrogenase activity in living HCT116, LoVo and SW620 cells was considered to measure the contribution of ^131I beta radiation to cell death, and the cell viability analysis was carried out after exposure to concentrations ten times lower than the IC50 obtained for each cancer cell line (8.8, 1.8 and 6.8 µM, respectively). Cell viability was evaluated by the XTT (2,3-bis[2-methoxy-4-nitro-5-sulfophenyl]-2H-tetrazolium-5-carboxyanilide) assay kit (Roche, Germany), based on to the manufacturer’s instructions. Briefly, colorectal cancer cell lines at a density of 10^4 cells/well were seeded in 96-well microtiter plates. The viability after treatment was measured 72 h (incubation in 5% CO2, 85% humidity and 37 °C). The absorbance in each well was recorded in a microplate reader (Epoch; BioTek Instruments; Winooski, VT, USA) at 450 nm. […]

HCT116 [5] = test: XTT cell viability; assay type: cell-based, human; details: HCT116, 8.8 µM, 1.44 Bq/cell, 72 h
Method: as §2, §3, §4

LoVo [6] = test: XTT cell viability; assay type: cell-based, human; details: 1.8 µM, 1.44 Bq/cell, 72 h
Method: as §2, §3, §4

γ-H2AX foci in LoVo = test: DNA double-stranded breaks, γ-H2AX foci assay; assay type: cell-based, human; details: 1.8 µM, 3 h
Method: (§5) For the evaluation of DNA double-stranded breaks (DSBs), the phosphorylation of the Ser-139 gamma histone variant H2AX (γH2AX) was used as a biomarker. Cells, diluted to a suitable concentration, were grown on a glass slide after exposure to I-C19 or ^131I-labeled C19 (1.8, 6.8 and 8.8 µM for the cell lines LoVo, SW620 and HCT116, respectively) for 3 h. The anti-phospho-histone H2A.X (ser139) (1:200; CST, Boston, MA, USA) antibody was used as the primary antibody. The Alexa-488-conjugated anti-rabbit IgG was used for the visualization of γH2AX. […] To quantify the foci, clear and easily distinguishable dots were counted. At least 30 cells were imaged per slide, and the average number of foci per cell was calculated.

γ-H2AX foci in SW620 = test: DNA double-stranded breaks, γ-H2AX foci assay; assay type: cell-based, human; details: SW620, 6.8 µM, 3 h
Method: as §5

γ-H2AX foci in HCT116 = test: DNA double-stranded breaks, γ-H2AX foci assay; assay type: cell-based, human
Method: as §5

[7] = Biodistribution and biokinetic models; assay type: in vivo, Nu/Nu mice with LoVo xenograft tumors
Method: ^131I-C19 was intraperitoneally injected (200 µL, 5 MBq (135 µCi/mice)) into nu/nu mice. The mice (n = 3) were euthanized at 0.5, 1, 3, 5, 24, 48, 92 and 144 h post-injection. Whole tumor, lung, liver, pancreas, spleen, kidney, large intestine (colon) and blood were rinsed and placed into pre-weighed plastic test tubes. The activity was determined in a NaI(Tl) detector (Canberra) along with three 0.5 mL aliquots of the diluted standard, representing 100% of the injected activity and used for radioactive decay correction. Mean activity values in each organ were correlated with those of the standard (representing the initial injected activity) to obtain the percentage of injected dose (% ID) at different times. The % ID values of each organ or tumor were input into the Olinda/EXM 2.0 software and adjusted to exponential functions (first-order kinetics) to obtain biokinetic models corrected by radioactive decay ( qh(t) ) (Equation (2)), which corresponded to the I-C19 compound. Likewise, the Ah(t) functions, which corresponded to the ^131I-C19 biokinetic models, were obtained considering λeff as =λB+λR , where the biological constant is represented by λB and the ^131I − radioactive decay constant is λR (Equation (3)). (2) qh(t)=Ah(t)×e^λR = Be^(−λBb)t+Ce^(−λBc)t+De^(−λBd)t (3) Ah(t)=Be^−(λBb+λR)t+Ce^−(λBc+λR)t+De^−(λBd+λR)t

SW620 [8] = test: Cell uptake, internalization and radiation absorbed dose to the nucleus; assay type: cell-based, human; details: for total uptake in the cell membrane (of the total radioactivity): 1.44 Bq/cell
Method: as §1
(§6) For estimation of the radiation absorbed doses to the HCT116, LoVo and SW620 cells’ nuclei, Equation (1) was used:(1) DN←source=(NCS×DFN←CS)+(NCy×DFN←Cy) where DN←source denotes the mean absorbed dose to the nucleus from source regions (i.e., cell surface—CS; cytoplasm—Cy); NCS and NCy are the total nuclear transformations occurring in the membrane and cytoplasm, respectively, calculated from the mathematical integration (from t = 0 to t = ∞) of the activity estimated in the internalization and cell uptake experiments; DFN←CS and DFN←Cy represent the dose factors specific for [^131I] from the cell surface (plasmatic membrane) and cytoplasm regions to the nucleus configuration. The dose factor geometries were obtained from S values (HCT116 cell radius = 10 μm, nucleus radius = 5 μm; LoVo and SW620 cell radius = 10 μm, nucleus radius = 6 μm).

HCT116 [9] = test: as above; assay type: cell-based, human; details: for total uptake in the cell membrane (of the total radioactivity): 1.44 Bq/cell
Method: as §1, §6

LoVo [10] = test: as above; assay type: cell-based, human; details: for total uptake in the cell membrane (of the total radioactivity): 1.44 Bq/cell
Method: as §1, §6

## O=c1[nH]cc(F)c(=O)[nH]1 [5-Fu, 5-fluorouracil, reference compound]
[1]; 15 mg/kg single intraperitoneal injection
  frequency of micronucleated polychromatic erythrocytes (MNPCEs): 27 ± 4

## COc1ccc(CN[C@@H](C)C(=O)Nc2cc(Cl)ccc2Cl)cc1OC [C19, (2S)-N-(2,5-dichlorophenyl)-2-[(3,4-dimethoxyphenyl)methylamine]propanamide]
CCD-18Co
  IC50: 60.8 µM
Colon adenocarcinoma; 30 mg/kg intraperitoneally every day for 12 days (vehicle 7–8%)
  percentage of colon adenocarcinoma: 5–6%
Colon adenocarcinoma; 30 mg/kg, 12 days (vehicle 65%)
  CEA marker, IHC: 12.5 % of neoplastic tissue
[1]; 30 mg/kg single intraperitoneal injection, not significant
  frequency of micronucleated polychromatic erythrocytes (MNPCEs): 12 ± 1

## O=P1(N(CCCl)CCCl)NCCCO1 (stereo not drawn) [CP, Cyclophosphamide]
micronuclei
  induction of micronuclei: strong

## [125I-].[Na+] [Na[^125I]]
[2]
  activity in tumor tissue: 9.1 % ID/g

## COc1ccc(CNC(C)C(=O)Nc2cc([131I])ccc2[131I])cc1OC (stereo not drawn) [^131I-C19]
[3]
  initial uptake: 3.28–3.6%
SW620 [4]
  cell viability compared to unlabeled I-C19 at the same concentration: viability significantly decreased
HCT116 [5]
  cell viability compared to unlabeled I-C19 at the same concentration: viability significantly decreased
LoVo [6]
  cell viability compared to unlabeled I-C19 at the same concentration: viability significantly decreased
γ-H2AX foci in LoVo
  γ-H2AX foci increase, ^131I-C19 vs. I-C19 at the same concentration: 2.1 times
γ-H2AX foci in SW620
  γ-H2AX foci increase, ^131I-C19 vs. I-C19 at the same concentration: 2.3 times
γ-H2AX foci in HCT116; HCT116, 8.8 µM, 3 h
  γ-H2AX foci, ^131I-C19 vs. I-C19 at the same concentration: almost three times more γ-H2AX foci
γ-H2AX foci in HCT116; HCT116, exposure to ^131I beta radiation
  level of DSBs relative to the control: six times higher than the control
[7]; LoVo tumor, after 1 h
  activity concentration in the tumor tissue: 4.4 % ID/g
[7]; biodistribution, 5 MBq intraperitoneal
  route of excretion: renal and hepatobiliary excretion
[7]; intraperitoneal, fitted biexponential model
  remaining fraction of activity cleared slowly from the blood: 10.2%
SW620 [8]; SW620, 3 h
  internalized activity into the cytoplasm: 2.66 ± 0.30%
  total uptake in the cell membrane (of the total radioactivity): 45.6 ± 6.7%
SW620 [8]; SW620, 5 h
  internalized activity into the cytoplasm: 1.44 ± 0.14%
  total uptake in the cell membrane (of the total radioactivity): 25.62 ± 4.71%
HCT116 [9]; HCT116, 3 h
  internalized activity into the cytoplasm: 2.45 ± 0.21%
  total uptake in the cell membrane (of the total radioactivity): 43.6 ± 4.7%
HCT116 [9]; HCT116, 5 h
  internalized activity into the cytoplasm: 1.63 ± 0.05%
  total uptake in the cell membrane (of the total radioactivity): 1.63 ± 0.34%
LoVo [10]; 3 h
  internalized activity into the cytoplasm: 2.90 ± 0.82%
  total uptake in the cell membrane (of the total radioactivity): 40.2 ± 6.4%
LoVo [10]; 5 h
  internalized activity into the cytoplasm: 0.30 ± 0.04%
  total uptake in the cell membrane (of the total radioactivity): 1.80 ± 0.18%

Source: publication PMC9458062, “^131I-C19 Iodide Radioisotope and Synthetic I-C19 Compounds as K-Ras4B–PDE6δ Inhibitors: A Novel Approach against Colorectal Cancer—Biological Characterization, Biokinetics and Dosimetry” (Molecules, 2022)
